Source: patent US20190381086A1, “INHIBITION OF NEDDYLATION USING GLYCYL-tRNA SYNTHETASE INHIBITORS” (The Scripps Research Institute, priority 2015, published 2019)

How the values were obtained:
OVCAR-5 = test: NCI 60 Cell One-Dose Screen; format: cell-based, human; conditions: OVCAR-5, Ovarian Cancer; single dose 10^-5 M
MOLT-4 = test: NCI 60 Cell One-Dose Screen; format: cell-based, human; conditions: MOLT-4, Leukemia; single dose 10^-5 M
MDA-MB-231/ATCC = test: NCI 60 Cell One-Dose Screen; format: cell-based, human; conditions: Breast Cancer, single dose 10^-5 M
SF-268 = test: NCI 60 Cell One-Dose Screen; format: cell-based, human; conditions: SF-268, CNS Cancer; single dose 10^-5 M
CAKI-1 = test: NCI 60 Cell One-Dose Screen; format: cell-based, human; conditions: CAKI-1, Renal Cancer; single dose 10^-5 M
NCI-H23 = test: NCI 60 Cell One-Dose Screen; format: cell-based, human; conditions: NCI-H23, Non-Small Cell Lung Cancer; single dose 10^-5 M
HT29 = test: NCI 60 Cell One-Dose Screen; format: cell-based, human; conditions: HT29, Colon Cancer; single dose 10^-5 M
SK-OV-3 = test: NCI 60 Cell One-Dose Screen; format: cell-based, human; conditions: SK-OV-3, Ovarian Cancer; single dose 10^-5 M
SK-MEL-28 = test: NCI 60 Cell One-Dose Screen; format: cell-based, human; conditions: SK-MEL-28, Melanoma; single dose 10^-5 M
HOP-92 = test: NCI 60 Cell One-Dose Screen; format: cell-based, human; conditions: HOP-92, Non-Small Cell Lung Cancer; single dose 10^-5 M
RPMI-8226 [1] = test: NCI 60 Cell One-Dose Screen; format: cell-based, human; conditions: RPMI-8226, Leukemia; single dose 10^-5 M
UACC-62 [2] = test: NCI 60 Cell One-Dose Screen; format: cell-based, human; conditions: UACC-62, Melanoma; single dose 10^-5 M
HOP-62 = format: cell-based; conditions: HOP-62, Non-Small Cell Lung Cancer
SR = format: cell-based; conditions: Leukemia
T-47D = format: cell-based; conditions: Breast Cancer
NCI/ADR-RES = format: cell-based; conditions: Ovarian Cancer
EKVX = format: cell-based; conditions: Non-Small Cell Lung Cancer
HL-60(TB) = format: cell-based
HCT-116 = format: cell-based; conditions: HCT-116, Colon Cancer
RPMI-8226 [3] = format: cell-based; conditions: RPMI-8226, Leukemia
K-562 = format: cell-based; conditions: K-562, Leukemia
SNB-19 = format: cell-based; conditions: SNB-19, CNS Cancer
IGROV1 = format: cell-based; conditions: IGROV1, Ovarian Cancer
BT-549 = format: cell-based; conditions: BT-549, Breast Cancer
U251 = format: cell-based; conditions: U251, CNS Cancer
A549/ATCC = format: cell-based; conditions: Non-Small Cell Lung Cancer
SF-539 = format: cell-based; conditions: SF-539, CNS Cancer
HCC-2998 = format: cell-based; conditions: HCC-2998, Colon Cancer
UACC-62 [4] = format: cell-based; conditions: UACC-62, Melanoma
NCI-H226 = format: cell-based; conditions: NCI-H226, Non-Small Cell Lung Cancer
SK-MEL-5 = format: cell-based; conditions: SK-MEL-5, Melanoma
[5] = Homo sapiens, read-out: LC50 (the source's name)

## NCC(=O)NS(=O)(=O)OC[C@H]1O[C@@H](n2cnc3c(N)ncnc32)[C@H](O)[C@@H]1O [GlySA, glycylsulfamoyladenosine]
OVCAR-5
  Growth inhibition count (%): 0.2916%
MOLT-4
  Growth inhibition count (%): 1.146%
MDA-MB-231/ATCC
  Growth inhibition count (%): 2.608%
SF-268
  Growth inhibition count (%): 3.776%
CAKI-1
  Growth inhibition count (%): 5.11%
NCI-H23
  Growth inhibition count (%): 5.695%
HT29
  Growth inhibition count (%): 6.002%
SK-OV-3
  Growth inhibition count (%): 6.281%
SK-MEL-28
  Growth inhibition count (%): 8.357%
HOP-92
  Growth inhibition count (%): 17.26%
RPMI-8226 [1]
  Growth inhibition count (%): 18.04%
UACC-62 [2]
  Growth inhibition count (%): 30.71%
HOP-62
  LC50/GI50: >269.2
HOP-62; Homo sapiens
  GI50: 0.372 µM
HOP-62; [5]
  CC50: > 100 µM
SR; Homo sapiens
  GI50: 0.933 µM
SR; [5]
  CC50: > 100 µM
SR
  LC50/GI50: >107.2
T-47D
  LC50/GI50: >42.7
T-47D; Homo sapiens, T47D
  GI50: 2.34 µM
T-47D; Homo sapiens, T47D, read-out: LC50 (the source's name)
  CC50: > 100 µM
NCI/ADR-RES; Homo sapiens
  GI50: 2.51 µM
NCI/ADR-RES; [5]
  CC50: > 100 µM
NCI/ADR-RES
  LC50/GI50: >39.8
EKVX; Homo sapiens
  GI50: 2.57 µM
EKVX
  LC50/GI50: >38.9
HL-60(TB); HL-60(TB), Leukemia
  LC50/GI50: >36.3
HL-60(TB); Homo sapiens, HL-60
  GI50: 2.75 µM
HCT-116
  LC50/GI50: >31.6
HCT-116; Homo sapiens
  GI50: 3.16 µM
HCT-116; [5]
  CC50: > 100 µM
RPMI-8226 [3]; Homo sapiens
  GI50: 3.31 µM
RPMI-8226 [3]; [5]
  CC50: > 100 µM
RPMI-8226 [3]
  LC50/GI50: >30.2
K-562; Homo sapiens, K562
  GI50: 3.71 µM
K-562
  LC50/GI50: >26.9
SNB-19; Homo sapiens
  GI50: 0.38 µM
SNB-19; [5]
  CC50: 6.92 µM
SNB-19
  LC50/GI50: 18.2
IGROV1; Homo sapiens, IGROV-1
  GI50: 3.02 µM
IGROV1; Homo sapiens, IGROV-1, read-out: LC50 (the source's name)
  CC50: 47.9 µM
IGROV1
  LC50/GI50: 15.8
BT-549
  LC50/GI50: 10.7
BT-549; Homo sapiens
  GI50: 2.34 µM
U251; Homo sapiens, U-251
  GI50: 0.55 µM
U251; Homo sapiens, U-251, read-out: LC50 (the source's name)
  CC50: 5.75 µM
U251
  LC50/GI50: 10.5
A549/ATCC; Homo sapiens
  GI50: 2.34 µM
A549/ATCC; [5]
  CC50: 19.1 µM
A549/ATCC
  LC50/GI50: 8.1
SF-539; Homo sapiens
  GI50: 1.45 µM
SF-539; [5]
  CC50: 8.91 µM
SF-539
  LC50/GI50: 6.2
HCC-2998
  LC50/GI50: 4.6
HCC-2998; Homo sapiens
  GI50: 2.04 µM
HCC-2998; [5]
  CC50: 9.33 µM
UACC-62 [4]; Homo sapiens
  GI50: 1.86 µM
UACC-62 [4]
  LC50/GI50: 4.2
NCI-H226; Homo sapiens
  GI50: 2 µM
NCI-H226; [5]
  CC50: 7.08 µM
NCI-H226
  LC50/GI50: 3.5
SK-MEL-5; Homo sapiens
  GI50: 1.86 µM
SK-MEL-5
  LC50/GI50: 3.2
OVCAR-3; Homo sapiens, OVCAR-3
  GI50: 2 µM
OVCAR-3; Homo sapiens, OVCAR-3, read-out: LC50 (μM)
  CC50: 10 µM
OVCAR-3; OVCAR-3, Ovarian Cancer
  LC50/GI50: 5.0
